pIC50: −log10 of the molar value.

For orientation: pIC50 means the IC50 on a negative log10 scale, so that one unit is a factor of ten.

T1 sequence (Q9Y233 1-779 isoform Q9Y233-1): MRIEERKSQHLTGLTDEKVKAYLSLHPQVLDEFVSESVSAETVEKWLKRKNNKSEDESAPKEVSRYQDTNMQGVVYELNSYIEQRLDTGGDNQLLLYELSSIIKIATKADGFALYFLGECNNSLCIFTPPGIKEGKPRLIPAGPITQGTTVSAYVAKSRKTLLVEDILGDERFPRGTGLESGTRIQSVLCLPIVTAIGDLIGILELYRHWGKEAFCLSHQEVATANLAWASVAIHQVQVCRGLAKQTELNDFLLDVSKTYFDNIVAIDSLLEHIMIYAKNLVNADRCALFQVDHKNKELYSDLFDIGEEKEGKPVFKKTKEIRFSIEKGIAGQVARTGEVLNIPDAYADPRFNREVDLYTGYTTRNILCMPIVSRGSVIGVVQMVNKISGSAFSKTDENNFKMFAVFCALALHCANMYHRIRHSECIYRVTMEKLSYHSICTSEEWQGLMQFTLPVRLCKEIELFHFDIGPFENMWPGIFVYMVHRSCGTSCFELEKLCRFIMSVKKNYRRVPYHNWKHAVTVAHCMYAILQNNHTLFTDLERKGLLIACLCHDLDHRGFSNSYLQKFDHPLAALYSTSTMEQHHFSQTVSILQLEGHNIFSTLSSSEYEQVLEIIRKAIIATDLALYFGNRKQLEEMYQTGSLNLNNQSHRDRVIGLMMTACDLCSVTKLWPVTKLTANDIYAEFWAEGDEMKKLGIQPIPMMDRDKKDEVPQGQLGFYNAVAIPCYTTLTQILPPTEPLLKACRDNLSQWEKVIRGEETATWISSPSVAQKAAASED

The experiment has as its target T1, human PDE10A full length (Homo sapiens, UniProt Q9Y233).
T1 construct: purchased Enzo Life Science, Lausen, Switzerland SE-534
Briefly: PDE10A Scintillation Proximity Assay (SPA), human PDE10A full length assay. Type of experiment: biochemical. To be noted: 50 nM cGMP + 50 nM [3H]-cGMP, 20 minutes at room temperature, read-out: PDE10A inhibition IC50. The method, then:
The following test was carried out in order to determine the activity of the compounds of the present invention. PDE10 activity of the compounds of the present invention was determined using a Scintillation Proximity Assay (SPA)-based method similar to the one previously described (Fawcett, L. et al., Proc Natl Acad Sci USA (2000) 97(7):3702-3707).
The human PDE10A full length assay was performed in 96-well micro titer plates. The reaction mixture of 50 μl contained 20 mM HEPES pH=7.5/10 mM MgCl2/0.05 mg/ml BSA (Sigma cat. #A-7906), 50 nM cGMP (Sigma, cat. #G6129) and 50 nM [^3H]-cGMP (GE Healthcare, cat. #TRK392 S.A. 13.2Ci/mmol), 3.75 ng/well PDE10A enzyme (Enzo Life Science, Lausen, Switzerland cat #SE-534) with or without a specific test compound. A range of concentrations of the potential inhibitor was used to generate data for calculating the concentration of inhibitor resulting in 50% of the effect (e.g. IC50, the concentration of the competitor inhibiting PDE10A activity by 50%). Non-specific activity was tested without the enzyme. The reaction was initiated by the addition of the substrate solution (cGMP and [^3H]-cGMP) and allowed to progress for 20 minutes at room temperature. The reaction was terminated by adding 25 μl of YSi-SPA scintillation beads (GE Healthcare, cat. #RPNQ0150) in 18 mM zinc sulphate solution (stop reagent). After 1 h under shaking, the plate was centrifuged one minute at 170 g to allow beads to settle. Afterwards, radioactive counts were measured on a Perkin Elmer TopCount Scintillation plate reader.
A general note: Scintillation proximity formats need no separation of bound from free tracer.
Take `COCCN(C)C(=O)c1cnn(C)c1C(=O)Nc1ccn2nc(-c3cccc(OCCF)c3)nc2c1` [Example 88, 2-Methyl-2H-pyrazole-3,4-dicarboxylic acid 3-({2-[3-(2-fluoro-ethoxy)-phenyl]-[1,2,4]triazolo[1,5-a]pyridin-7-yl}-amide)4-[(2-methoxy-ethyl)-methyl-amide]]: the negative-log IC50 (pIC50) was 9.38.
The figure for `COCCN(C)C(=O)c1cnn(C)c1C(=O)Nc1ccn2nc(-c3cccc(OCF)c3)nc2c1` [Example 89, 2-Methyl-2H-pyrazole-3,4-dicarboxylic acid 3-{[2-(3-fluoromethoxy-phenyl)-[1,2,4]triazolo[1,5-a]pyridin-7-yl]-amide} 4-[(2-methoxy-ethyl)-methyl-amide]] is 9.23; for `Cn1ncc(C(=O)N2CCC2)c1C(=O)Nc1ccn2nc(-c3cccc(OCCF)c3)nc2c1` [Example 90, 4-(Azetidine-1-carbonyl)-2-methyl-2H-pyrazole-3-carboxylic acid {2-[3-(2-fluoro-ethoxy)-phenyl]-[1,2,4]triazolo[1,5-a]pyridin-7-yl}-amide] it is 8.99; for `Cn1ncc(C(=O)N2CCC2)c1C(=O)Nc1ccn2nc(-c3cccc(OCF)c3)nc2c1` [Example 91, 4-(Azetidine-1-carbonyl)-2-methyl-2H-pyrazole-3-carboxylic acid [2-(3-fluoromethoxy-phenyl)-[1,2,4]triazolo[1,5-a]pyridin-7-yl]-amide] it is 9.07.
`CN(CCO)C(=O)c1cnn(C)c1C(=O)Nc1ccn2nc(-c3ccccc3)nc2c1` [Example 92, 2-Methyl-2H-pyrazole-3,4-dicarboxylic acid 4-[(2-hydroxy-ethyl)-methyl-amide]3-[(2-phenyl-[1,2,4]triazolo[1,5-a]pyridin-7-yl)-amide]]: the negative logarithm of the IC50 (pIC50) is 9.01.
For `COC(=O)CN(C)C(=O)c1cnn(C)c1C(=O)Nc1ccn2nc(-c3ccccc3)nc2c1` [Example 93, {Methyl-[1-methyl-5-(2-phenyl-[1,2,4]triazolo[1,5-a]pyridin-7-ylcarbamoyl)-1H-pyrazole-4-carbonyl]-amino}-acetic acid methyl ester], the pIC50 was 8.67.
The result for `CN(CCO)C(=O)c1cnn(C)c1C(=O)Nc1ccn2nc(N3CCOCC3)nc2c1` [Example 94, 2-Methyl-2H-pyrazole-3,4-dicarboxylic acid 4-[(2-hydroxy-ethyl)-methyl-amide]3-[(2-morpholin-4-yl-[1,2,4]triazolo[1,5-a]pyridin-7-yl)-amide]] reads 7.69; that for `COC(=O)CN(C)C(=O)c1cnn(C)c1C(=O)Nc1ccn2nc(N3CCOCC3)nc2c1` [Example 95, {Methyl-[1-methyl-5-(2-morpholin-4-yl-[1,2,4]triazolo[1,5-a]pyridin-7-ylcarbamoyl)-1H-pyrazole-4-carbonyl]-amino}-acetic acid methyl ester], 7.30; that for `Cn1ncc(C(=O)NCCF)c1C(=O)Nc1ccn2nc(-c3ccccc3)nc2c1` [Example 96, 2-Methyl-2H-pyrazole-3,4-dicarboxylic acid 4-[(2-fluoro-ethyl)-amide]3-[(2-phenyl[1,2,4]triazolo[1,5-a]pyridin-7-yl)-amide]], 8.67.
For the molecule `COc1ccccc1-c1nc2cc(NC(=O)c3c(C(=O)N(C)C)cnn3C)ccn2n1` [Example 97, 2-Methyl-2H-pyrazole-3,4-dicarboxylic acid 4-dimethylamide 3-{[2-(2-methoxy-phenyl)-[1,2,4]triazolo[1,5-a]pyridin-7-yl]-amide}], the negative-log IC50 (pIC50) was 9.51.
Regarding `CCN(C)C(=O)c1cnn(C)c1C(=O)Nc1ccn2nc(-c3ccccc3OC)nc2c1` [Example 98, 2-Methyl-2H-pyrazole-3,4-dicarboxylic acid 4-(ethyl-methyl-amide)3-{[2-(2-methoxy-phenyl)-[1,2,4]triazolo[1,5-a]pyridin-7-yl]-amide}], the negative logarithm of the IC50 (pIC50) was 9.17.
The figure for `COCCN(C)C(=O)c1cnn(C)c1C(=O)Nc1ccn2nc(-c3ccccc3OC)nc2c1` [Example 99, 2-Methyl-2H-pyrazole-3,4-dicarboxylic acid 4-[(2-methoxy-ethyl)-methyl-amide]3-{[2-(2-methoxy-phenyl)-[1,2,4]triazolo[1,5-a]pyridin-7-yl]-amide}] is 9.13.
The figure for `CCN(C)C(=O)c1cnn(C)c1C(=O)Nc1ccn2nc(-c3ccccc3OCCF)nc2c1` [Example 101, 2-Methyl-2H-pyrazole-3,4-dicarboxylic acid 4-(ethyl-methyl-amide)3-({2-[2-(2-fluoro-ethoxy)-phenyl]-[1,2,4]triazolo[1,5-a]pyridin-7-yl}-amide)] is 9.19.
The result for `CN1CCN(C(=O)c2cnn(C)c2C(=O)Nc2ccn3nc(-c4cccc(F)c4)nc3c2)CC1` [Example 108, 2-Methyl-4-(4-methyl-piperazine-1-carbonyl)-2H-pyrazole-3-carboxylic acid [2-(3-fluoro-phenyl)-[1,2,4]triazolo[1,5-a]pyridin-7-yl]-amide] reads 7.81; that for `Cn1ncc(C(=O)N2CCC2)c1C(=O)Nc1ccn2nc(-c3cccnc3F)nc2c1` [Example 110, 4-(Azetidine-1-carbonyl)-2-methyl-2H-pyrazole-3-carboxylic acid [2-(2-fluoro-pyridin-3-yl)-[1,2,4]triazolo[1,5-a]pyridin-7-yl]-amide], 8.33; that for `Cn1ncc(C(=O)NC2CC2)c1C(=O)Nc1ccn2nc(N3CCOCC3)nc2c1` [Example 113, 2-Methyl-2H-pyrazole-3,4-dicarboxylic acid 4-cyclopropylamide 3-[(2-morpholin-4-yl-[1,2,4]triazolo[1,5-a]pyridin-7-yl)-amide]], 7.72.
Regarding `CN(CCF)c1nc2cc(NC(=O)c3c(C(=O)N4CCCC4)cnn3C)ccn2n1` [Example 115, 2-Methyl-4-(pyrrolidine-1-carbonyl)-2H-pyrazole-3-carboxylic acid {2-[(2-fluoro-ethyl)-methyl-amino]-[1,2,4]triazolo[1,5-a]pyridin-7-yl}-amide], the pIC50 is 8.64.
As to `CCN(C)C(=O)c1cnn(C)c1C(=O)Nc1ccn2nc(-c3cccnc3)nc2c1` [Example 116, 2-Methyl-2H-pyrazole-3,4-dicarboxylic acid 4-(ethyl-methyl-amide)3-[(2-pyridin-3-yl-[1,2,4]triazolo[1,5-a]pyridin-7-yl)-amide]], the negative logarithm of the IC50 (pIC50) is 8.95.
The result for `Cn1ncc(C(=O)N2CCOCC2)c1C(=O)Nc1ccn2nc(-c3cccc(F)n3)nc2c1` [Example 121, 2-Methyl-4-(morpholine-4-carbonyl)-2H-pyrazole-3-carboxylic acid [2-(6-fluoro-pyridin-2-yl)-[1,2,4]triazolo[1,5-a]pyridin-7-yl]-amide] reads 8.30; that for `Cn1ncc(C(=O)N2CC3(COC3)C2)c1C(=O)Nc1ccn2nc(N3CCCC3)nc2c1` [Example 122, 2-Methyl-4-(2-oxa-6-aza-spiro[3.3]heptane-6-carbonyl)-2H-pyrazole-3-carboxylic acid (2-pyrrolidin-1-yl-[1,2,4]triazolo[1,5-a]pyridin-7-yl)-amide], 8.21; that for `CN(c1nc2cc(NC(=O)c3c(C(=O)O)cnn3C)ccn2n1)C1CC1` [Example 125, 5-[2-(Cyclopropyl-methyl-amino)-[1,2,4]triazolo[1,5-a]pyridin-7-ylcarbamoyl]-1-methyl-1H-pyrazole-4-carboxylic acid], 7.27.
Consider `CN(C(=O)c1cnn(C)c1C(=O)Nc1ccn2nc(N(C)C3CC3)nc2c1)C1CC1` [Example 126, 2-Methyl-2H-pyrazole-3,4-dicarboxylic acid 4-(cyclopropyl-methyl-amide)3-{[2-(cyclopropyl-methyl-amino)-[1,2,4]triazolo[1,5-a]pyridin-7-yl]-amide}], for which the negative-log IC50 (pIC50) was 9.31.
The result for `CN(c1nc2cc(NC(=O)c3c(C(=O)N4CCC4)cnn3C)ccn2n1)C1CC1` [Example 127, 4-(Azetidine-1-carbonyl)-2-methyl-2H-pyrazole-3-carboxylic acid [2-(cyclopropyl-methyl-amino)-[1,2,4]triazolo[1,5-a]pyridin-7-yl]-amide] reads 9.14; that for `CN(c1nc2cc(NC(=O)c3c(C(=O)N4CCOCC4)cnn3C)ccn2n1)C1CC1` [Example 128, 2-Methyl-4-(morpholine-4-carbonyl)-2H-pyrazole-3-carboxylic acid [2-(cyclopropyl-methyl-amino)-[1,2,4]triazolo[1,5-a]pyridine-7-yl]-amide], 8.47.
The result for `Cn1ncc(C(=O)N2CCN3CCC2C3)c1C(=O)Nc1ccn2nc(-c3ccccc3)nc2c1` (centres unmarked) [Example 129, 4-(1,4-Diaza-bicyclo[3.2.1]octane-4-carbonyl)-2-methyl-2H-pyrazole-3-carboxylic acid (2-phenyl-[1,2,4]triazolo[1,5-a]pyridin-7-yl)-amide] reads 8.96; that for `Cn1ncc(C(=O)N2CCC2)c1C(=O)Nc1ccn2nc(-c3ccccc3OCCF)nc2c1` [Example 130, 4-(Azetidine-1-carbonyl)-2-methyl-2H-pyrazole-3-carboxylic acid {2-[2-(2-fluoro-ethoxy)-phenyl]-[1,2,4]triazolo[1,5-a]pyridin-7-yl}-amide], 9.47.

Source of the values: US8349824B2, “Triazolopyridine compounds” (Hoffmann-La Roche Inc., priority 2010, dated 2013).
